Measured values: ChEMBL document CHEMBL5120804, “Total Syntheses and Anti-inflammatory Evaluations of Pongamosides A-C, Natural Furanoflavonoid Glucosides from Fruit of Pongamia pinnata (L.) Pierre” (J Nat Prod, 2022)
The source made the active and inactive calls. The calls are words filed in the database; no cut-off is given here.

Assays:
RAW264.7 [1] = assay: Antiinflammatory activity in mouse RAW264.7 assessed as inhibition of LPS-induced NO production at 25 uM pretreated for 2 hrs followed by LPS addition and measured after 24 hrs; type: functional, cell-based; conditions: time 26.0 hrs
RAW264.7 [2] = assay: Antiinflammatory activity in mouse RAW264.7 assessed as inhibition of LPS-induced NO production pretreated for 2 hrs followed by LPS addition and measured after 24 hrs; type: functional, cell-based

Structure (SMILES) | Activity (RAW264.7 [1]) | IC50 (RAW264.7 [2])
COc1c(-c2ccccc2)oc2c(cc(O[C@@H]3O[C@H](CO)[C@@H](O)[C@H](O)[C@H]3O)c3occc32)c1=O | Active | 
O=c1cc(-c2cccc(O)c2)oc2c1ccc1occc12 | Active | 27.3 µM
COc1cc2c(=O)cc(-c3cccc(O)c3)oc2c2ccoc12 | Active | 
COc1c(-c2ccccc2)oc2c(cc(O)c3occc32)c1=O | Active | 22.2 µM
